Assay results from paper PMC8984819, “Acetylene containing 2-(2-hydrazinyl)thiazole derivatives: design, synthesis, and in vitro and in silico evaluation of antimycobacterial activity against Mycobacterium tuberculosis” (RSC Advances, 2022).
Converted amounts (≈) assume the structure as drawn. Like-named read-outs stand apart in the source and are kept apart here.

Tests used:
[1] = system: H37Rv strain of Mycobacterium tuberculosis; assay: microbe, parasite or virus in culture; assay type: cell-based; settings: for inhibition at 50 µg/mL / inhibition at 100 µg/mL / inhibition at 2 µg/mL: H37RV; for inhibition at 50 µg/mL / inhibition at 100 µg/mL / % Inhibition ± SD: LRP assay; for inhibition at 50 µg/mL / inhibition at 100 µg/mL: read-out: % Inhibition ± SD
[2] = in vitro; assay type: cell-based; settings: human
Method: HEK293 cells were grown in DMEM media containing 10% FBS and L-glutamine–penicillin–streptomycin solution at 37 °C in 5% CO2 condition. To perform MTT assay, 96 well tissue culture plate was seeded with […] number of cells. After 16 hours of seeding, cells were successfully attached to the culture plate and were treated with the active chemical compounds dissolved in DMSO at different concentrations as follows: 25 μg ml^−1, 50 μg ml^−1, 75 μg ml^−1 and 100 μg ml^−1. The cells were also treated with the DMSO to exclude the solvent-induced toxicity and used as an internal control. After 48 hours post active chemical compounds treatment, the MTT assay was performed as described previously.[45] MG-132, a potent proteasomal inhibitor and an inducer of apoptosis[46,47] was used as a positive control in the assay. Wells with media lacking any cells were as used as a negative control in the assay.
Tetrazolium-based […] cytotoxicity (MTT) assay is an important method to evaluate the viability of cells and it was performed for all the active chemical compounds using HEK293. To illustrate the percentage cell viability, the HEK293 cells were incubated with different concentrations of all active chemical compounds for 48 h. The compounds showing the viability of less than 50% of the cells were considered cytotoxic compounds. We observed that maximum compounds (such as 7, 9, 10, 13 and 25) show more than 75% of the cell viability at the highest concentration i.e. 100 μg ml^−1 for 48 hours of the treatment. Similarly, other compounds (such as 5, 6, 22, 26 and 31) show 70% cell viability upon 48 hours of the treatment. […] MG-132, a potent proteasomal inhibitor and an inducer of apoptosis was used as a positive control in the assay.

[3] = Mycobacterium tuberculosis, 50 µg/ml, M. Tb H37Rv
[4] = Mycobacterium tuberculosis, 100 µg/ml, M. Tb H37Rv

Compound | inhibition at 50 µg/mL [1, 3] [%] | inhibition at 100 µg/mL [1, 4] [%] | melting point [°C] | also measured
C#CCOc1ccc(/C=N/Nc2nc(-c3ccc(Cl)c(Cl)c3)cs2)cc1OCC [Compound 19] | 2.38 ± 0.07 | 7.21 ± 0.21 | 153 to 155 | –
NNC(=O)c1ccncc1 [INH, isoniazid, reference compound] | – | – | – | inhibition at 2 µg/mL ([1]; Mycobacterium tuberculosis, at 2 µg/ml, reference drugs, M. Tb H37Rv, read-out: % Inhibition): > 99%
C#CCOc1ccc(/C=N/Nc2nc(-c3ccc(C#N)cc3)cs2)cc1OCC [Compound 22] | 50.9 ± 1.52 | 57.2 ± 1.71 | – | viability at 48 h, 100 μg ml^−1 [2]: 70%
C#CCOc1ccc(Br)cc1/C=N/Nc1nc(-c2ccccc2)cs1 [Compound 25] | 61 | 66.2 ± 1.98 | 195 to 197 | viability at 48 h, 100 μg ml^−1 [2]: > 75%; % Inhibition ± SD ([1]; 50 µg/ml, M. Tb H37Rv): 61.86 ± 1.85%; MIC ([1]; Mycobacterium tuberculosis, concentration giving 50% inhibition of M. Tb H37Rv): 50 µg/mL (≈ 121 µM)
C#CCOc1ccc(/C=N/Nc2nc(-c3ccc(Br)cc3)cs2)cc1OCC [Compound 20] | 7.35 ± 0.22 | 12.1 ± 0.36 | – | –
C#CCOc1ccc(/C=N/Nc2nc(-c3ccc([N+](=O)[O-])cc3)cs2)cc1OCC [Compound 21] | 48.7 ± 1.46 | 50.9 ± 1.52 | 191 to 193 | –
C#CCOc1ccc(/C=N/Nc2nc(-c3ccc(Cl)cc3)cs2)cc1OCC [Compound 18] | 6.36 ± 0.19 | 17.8 ± 0.53 | – | –
C#CCOc1ccccc1/C=N/Nc1nc(-c2ccc(C#N)cc2)cs1 [Compound 13] | 54.3 ± 1.62 | – | 150 to 152 | viability at 48 h, 100 μg ml^−1 [2]: > 75%
C#CCOc1ccccc1/C=N/Nc1nc(-c2ccc(F)cc2)cs1 [Compound 8] | 38 ± 1.14 | – | 180 to 182 | –
C#CCOc1ccc(Br)cc1/C=N/Nc1nc(-c2ccc(Br)cc2)cs1 [Compound 29] | 27.1 ± 0.81 | 37.2 ± 1.11 | 208 to 210 | –
C#CCOc1ccc(/C=N/Nc2nc(-c3ccccc3)cs2)cc1OCC [Compound 16] | 40.5 ± 1.21 | 48.7 ± 1.46 | – | –
C#CCOc1ccc(Br)cc1/C=N/Nc1nc(-c2ccc(C)cc2)cs1 [Compound 31] | 54.9 ± 1.64 | 56.3 ± 1.68 | 191 to 193 | viability at 48 h, 100 μg ml^−1 [2]: 70%; % Inhibition ± SD ([1]; 50 µg/ml, M. Tb H37Rv): 54%
C#CCOc1ccccc1/C=N/Nc1nc(-c2ccc(Cl)cc2)cs1 [Compound 9] | 50.8 ± 1.52 | – | 160 to 164 | viability at 48 h, 100 μg ml^−1 [2]: > 75%
C#CCOc1ccc(Br)cc1/C=N/Nc1nc(-c2ccc(C#N)cc2)cs1 [Compound 30] | 43.7 ± 1.31 | 48.7 ± 1.46 | 199 to 201 | –
C#CCOc1ccccc1/C=N/Nc1nc(-c2ccc(C)cc2)cs1 [Compound 14] | 38.2 ± 1.14 | – | – | –
C#CCOc1ccc(C=O)cc1OCC [Compound 2] | 7.73 ± 0.23 | 8.08 ± 0.24 | 74 to 75 | –
C#CCOc1ccc(Br)cc1/C=N/Nc1nc(-c2ccc(Cl)cc2)cs1 [Compound 27] | 38.1 ± 1.14 | 52.7 ± 1.58 | 209 to 211 | % Inhibition ± SD ([1]; 100 µg/ml, M. Tb H37Rv): 50%

Compound | inhibition at 50 µg/mL [1, 3] [%] | inhibition at 100 µg/mL [1, 4] [%] | melting point [°C] | also measured
C#CCOc1ccc(Br)cc1/C=N/NC(N)=S [Compound 6] | 51.2 ± 1.53 | 56.9 ± 1.7 | 204 to 206 | viability at 48 h, 100 μg ml^−1 [2]: 70%
C#CCOc1ccc(Br)cc1C=O [Compound 3] | 48.7 ± 1.46 | 50.9 ± 1.52 | 92 to 93 | –
C#CCOc1ccccc1/C=N/Nc1nc(-c2ccccc2)cs1 [Compound 7] | 51.7 ± 1.54 | – | 183 to 185 | viability at 48 h, 100 μg ml^−1 [2]: > 75%
C#CCOc1ccccc1/C=N/Nc1nc(-c2ccc(OC)cc2)cs1 [Compound 15] | 10.3 ± 0.3 | – | 181 to 183 | –
C#CCOc1ccccc1C=O [Compound 1] | 39.3 ± 1.17 | – | – | –
C#CCOc1ccc(/C=N/Nc2nc(-c3ccc(C)cc3)cs2)cc1OCC [Compound 23] | 8.72 ± 0.26 | 10.5 ± 0.31 | 166 to 168 | –
C#CCOc1ccc(Br)cc1/C=N/Nc1nc(-c2ccc(Cl)c(Cl)c2)cs1 [Compound 28] | 43.8 ± 1.31 | 50.2 ± 1.5 | 213 to 215 | % Inhibition ± SD ([1]; 100 µg/ml, M. Tb H37Rv): 50%
C#CCOc1ccc(Br)cc1/C=N/Nc1nc(-c2ccc(OC)cc2)cs1 [Compound 32] | 43.7 ± 1.31 | 48.7 ± 1.46 | 184 to 187 | –
C#CCOc1ccc(/C=N/Nc2nc(-c3ccc(OC)cc3)cs2)cc1OCC [Compound 24] | 5.64 ± 0.16 | 33 ± 0.98 | 183 to 185 | –
C#CCOc1ccccc1/C=N/Nc1nc(-c2ccc(Cl)c(Cl)c2)cs1 [Compound 10] | 52 ± 1.56 | – | – | viability at 48 h, 100 μg ml^−1 [2]: > 75%
C#CCOc1ccccc1/C=N/Nc1nc(-c2ccc([N+](=O)[O-])cc2)cs1 [Compound 12] | 29.1 ± 0.87 | – | 185 to 187 | –
C#CCOc1ccccc1/C=N/Nc1nc(-c2ccc(Br)cc2)cs1 [Compound 11] | 49.1 ± 1.47 | – | 144 to 146 | –
CO[C@H]1/C=C/O[C@@]2(C)Oc3c(C)c(O)c4c(O)c(c(/C=N/N5CCN(C)CC5)c(O)c4c3C2=O)NC(=O)/C(C)=C\C=C\[C@H](C)[C@H](O)[C@@H](C)[C@@H](O)[C@@H](C)[C@H](OC(C)=O)[C@@H]1C [RIF, rifampicin, reference compound] | – | – | – | inhibition at 2 µg/mL ([1]; Mycobacterium tuberculosis): > 99%
C#CCOc1ccc(/C=N/Nc2nc(-c3ccc(F)cc3)cs2)cc1OCC [Compound 17] | 2.06 ± 0.06 | 11.4 ± 0.34 | 152 to 154 | –
C#CCOc1ccc(Br)cc1/C=N/Nc1nc(-c2ccc(F)cc2)cs1 [Compound 26] | 50.7 ± 1.52 | 57.7 ± 1.73 | 207 to 209 | viability at 48 h, 100 μg ml^−1 [2]: 70%
C#CCOc1ccccc1/C=N/NC(N)=S [Compound 4] | 46.8 ± 1.4 | – | 174 to 176 | antitubercular activity against M. Tb (active = 50% RLU reduction and above) ([1]; concentration not given): inactive
